Measurements as given in US7776862B2, “Pyridyl and phenyl substituted piperazine-piperidines with CXCR3 antagonist activity” (Schering Corporation, priority 2005, dated 2010).

biological target: T1, human CXCR3 (N-delta 4) (Homo sapiens, UniProt P49682); assay: Human CXCR3 (N-delta 4) scintillation proximity assay (SPA), [125I] IP-10 binding; conditions: IC50 rating; Ba/F3-hCXCR3 (N-delta 4) membranes, 25 pM [125I] IP-10
T1 construct: CD8 leader; Flag tag; expressed in transfected cells; membranes used
T1 sequence (P49682 5-368 limits assumed): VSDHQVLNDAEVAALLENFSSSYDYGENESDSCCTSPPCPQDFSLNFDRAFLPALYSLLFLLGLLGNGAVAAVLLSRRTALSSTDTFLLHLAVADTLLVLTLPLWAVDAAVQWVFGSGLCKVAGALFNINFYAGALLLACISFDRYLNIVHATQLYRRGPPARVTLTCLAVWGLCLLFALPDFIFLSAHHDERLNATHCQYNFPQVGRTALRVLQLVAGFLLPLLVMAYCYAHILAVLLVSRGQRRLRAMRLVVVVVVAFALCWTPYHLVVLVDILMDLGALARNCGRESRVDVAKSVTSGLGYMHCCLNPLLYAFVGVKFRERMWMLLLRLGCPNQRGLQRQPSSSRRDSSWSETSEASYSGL
How it was run: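 IP-10 and compound titrations added together. The receptor source was SPA beads bearing membranes from Ba/F3 cells transfected with human CXCR3 (N-delta 4) carrying a CD8 leader and Flag tag.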

Row | Compound | IC50
1 | O=C(NCc1ccc(F)cc1)c1cnc(N2CCN(C3CCN(Cc4ccc(Cl)c(F)c4)CC3)CC2)c(Cl)c1 [compound 139] | 25 to 100 nM
2 | O=C(NCc1ccc(Cl)cc1F)c1cnc(N2CCN(C3CCN(Cc4ccc(F)c(F)c4)CC3)CC2)c(Cl)c1 [compound 140] | 25 to 100 nM
3 | O=C(NCc1ccc(Cl)cc1Cl)c1cnc(N2CCN(C3CCN(Cc4ccc(F)c(F)c4)CC3)CC2)c(Cl)c1 [compound 141] | 25 to 100 nM
4 | O=C(NCc1ccc(Cl)cc1Cl)c1cnc(N2CCN(C3CCN(Cc4ccc([N+](=O)[O-])cc4)CC3)CC2)c(Cl)c1 [compound 142] | 25 to 100 nM
5 | CC1CC(N2CCN(c3ncc(C(=O)NCc4ccc(Cl)c(Cl)c4)cc3Cl)CC2)CCN1Cc1ccc(C#N)cc1 (stereo not drawn) [compound 143] | 25 to 100 nM
6 | O=C(NCc1ccc(F)c(Cl)c1)c1cnc(N2CCN(C3CCN(Cc4ccc(F)cc4)CC3)CC2)c(Cl)c1 [compound 144] | 25 to 100 nM
7 | N#Cc1ccc(CN2CCC(N3CCN(c4ncc(C(=O)NCc5ccc(Cl)c(Cl)c5)cc4Br)CC3)CC2)cc1 [compound 145] | 25 to 100 nM
8 | CC[C@H]1CN(c2ncc(C(N)=O)cc2Cl)CCN1C1CCN(C(=O)c2ccc(Cl)cc2N2CCOC2=O)CC1 [compound 146] | 25 to 100 nM
9 | O=C(NCc1ccc(Cl)c(Cl)c1)c1cnc(N2CCN(C3CCN(Cc4ccc(F)c(F)c4)CC3)CC2)c(Cl)c1 [compound 147] | 25 to 100 nM
10 | O=C(NCc1cccc(Cl)c1)c1cnc(N2CCN(C3CCN(Cc4ccc([N+](=O)[O-])cc4)CC3)CC2)c(Cl)c1 [compound 148] | 25 to 100 nM
11 | O=C(NCc1ccc(Cl)cc1Cl)c1cnc(N2CCN(C3CCN(Cc4ccc(Cl)cc4)CC3)CC2)c(Cl)c1 [compound 149] | 25 to 100 nM
12 | O=C(NCc1ccc(F)c(Cl)c1)c1cnc(N2CCN(C3CCN(Cc4ccc(Cl)cc4)CC3)CC2)c(Cl)c1 [compound 150] | 25 to 100 nM
13 | O=C(NCc1ccc(Cl)cc1)c1cnc(N2CCN(C3CCN(Cc4ccc(F)cc4)CC3)CC2)c(Cl)c1 [compound 151] | 25 to 100 nM
14 | C[C@@H]1CN(c2ncc(C(=O)NCc3ccc(F)c(F)c3)cc2Cl)CCN1C1CCN(Cc2ccc(Cl)cc2)CC1 [compound 152] | 25 to 100 nM
15 | O=C(NCc1ccc(Cl)cc1)c1cnc(N2CCN(C3CCN(Cc4ccc([N+](=O)[O-])cc4)CC3)CC2)c(Cl)c1 [compound 153] | 25 to 100 nM
16 | O=C(NCc1ccc(F)c(Cl)c1)c1cnc(N2CCN(C3CCN(Cc4ccc(F)c(F)c4)CC3)CC2)c(Cl)c1 [compound 154] | 25 to 100 nM
17 | O=C(NCc1ccc(Cl)cc1F)c1cnc(N2CCN(C3CCN(Cc4ccc([N+](=O)[O-])cc4)CC3)CC2)c(Cl)c1 [compound 155] | 25 to 100 nM
18 | O=C(NCc1ccc(F)c(Cl)c1)c1cnc(N2CCN(C3CCN(Cc4ccc(Cl)c(F)c4)CC3)CC2)c(Cl)c1 [compound 156] | 25 to 100 nM
19 | O=C(NCc1ccc(Cl)cc1)c1cnc(N2CCN(C3CCN(Cc4ccc(F)c(F)c4)CC3)CC2)c(Cl)c1 [compound 157] | 25 to 100 nM
20 | O=C(NCc1ccc(F)c(Cl)c1)c1cnc(N2CCN(C3CCN(Cc4ccc([N+](=O)[O-])cc4)CC3)CC2)c(Cl)c1 [compound 158] | 25 to 100 nM
21 | CNC(=O)c1cnc(N2CCN(C3CCN(Cc4ccc(Cl)cc4)C(C)C3)[C@@H](C)C2)c(Cl)c1 (stereo partly drawn) [compound 159] | 25 to 100 nM

Row | Compound | IC50
22 | CC[C@H]1CN(c2ncc(C(=O)NC(C)C)cc2Cl)CCN1C1CCN(C(=O)c2ccc(Cl)cc2)CC1 [compound 160] | 25 to 100 nM
23 | O=C(NCc1ccc(Cl)cc1)c1cnc(N2CCN(C3CCN(Cc4ccc(Cl)c(F)c4)CC3)CC2)c(Cl)c1 [compound 161] | 25 to 100 nM
24 | O=C(NCc1ccc(Cl)c(Cl)c1)c1cnc(N2CCN(C3CCN(Cc4ccc([N+](=O)[O-])cc4)CC3)CC2)c(Cl)c1 [compound 162] | < 25 nM
25 | CCNC(=O)c1cnc(N2CCN(C3CCN(Cc4ccc(Cl)cc4)CC3(C)C)CC2)c(Cl)c1 (stereo not drawn) [compound 163] | < 25 nM
26 | O=C(NCc1ccc(F)c(F)c1)c1cnc(N2CCN(C3CCN(Cc4ccc([N+](=O)[O-])cc4)CC3)CC2)c(Br)c1 [compound 164] | < 25 nM
27 | O=C(NCCOc1ccccc1)c1cnc(N2CCN(C3CCN(Cc4ccc(-c5ccccc5)cc4)CC3)CC2)c(Cl)c1 [compound 165] | > 100 nM
28 | O=C(NCc1ccccc1Cl)c1cnc(N2CCN(C3CCN(Cc4ccc(Cl)cc4)CC3)CC2)c(Cl)c1 [compound 166] | > 100 nM
29 | O=C(NCC1CC1)c1cnc(N2CCN(C3CCN(Cc4ccc(Cl)cc4)CC3)CC2)c(Cl)c1 [compound 167] | > 100 nM
30 | O=C(NC1CCCC1)c1cnc(N2CCN(C3CCN(Cc4ccc(Cl)cc4)CC3)CC2)c(Cl)c1 [compound 168] | > 100 nM
31 | O=C(NCCOc1ccccc1)c1cnc(N2CCN(C3CCN(Cc4ccc(OC(F)(F)F)cc4)CC3)CC2)c(Cl)c1 [compound 169] | > 100 nM
32 | O=C(NCc1ccc(F)c(F)c1)c1cnc(N2CC3CC2CN3C2CCN(Cc3ccc(Cl)cc3)CC2)c(Cl)c1 (stereo not drawn) [compound 170] | > 100 nM
33 | CC(NC(=O)c1cnc(N2CCN(C3CCN(Cc4ccc(Cl)cc4)CC3)CC2)c(Cl)c1)c1ccc(Cl)cc1 (stereo not drawn) [compound 171] | 25 to 100 nM
34 | CC(c1ccc(C#N)cc1)N1CCC(N2CCN(c3ncc(C(=O)NCc4ccc(F)c(F)c4)cc3Cl)CC2)CC1 (stereo not drawn) [compound 172] | > 100 nM
35 | C[C@@H]1CN(C2CCN(Cc3ccc(C#N)cc3)CC2)CCN1c1ncc(C(=O)NCc2ccc(Cl)c(Cl)c2)cc1Cl [compound 173] | > 100 nM
36 | C[C@@H]1CN(C2CCN(Cc3ccc([N+](=O)[O-])cc3)CC2)CCN1c1ncc(C(=O)NCc2ccc(Cl)c(Cl)c2)cc1Cl [compound 174] | 25 to 100 nM
37 | C[C@H]1CN(C2CCN(Cc3ccc(Cl)cc3)CC2)CCN1c1ncc(C(=O)NCc2ccc(Cl)c(Cl)c2)cc1Cl [compound 175] | 25 to 100 nM
38 | O=C(NCC1COc2ccccc2O1)c1cnc(N2CCN(C3CCN(Cc4ccc(Cl)cc4)CC3)CC2)c(Br)c1 (stereo not drawn) [compound 176] | > 100 nM
39 | CCCCNC(=O)c1cnc(N2CCN(C3CCN(Cc4ccc(Cl)cc4)CC3)CC2)c(Cl)c1 [compound 177] | > 100 nM
40 | O=C(NCC(c1ccccc1)c1ccccc1)c1cnc(N2CCN(C3CCN(Cc4ccc(Cl)cc4)CC3)CC2)c(Br)c1 [compound 178] | > 100 nM
41 | CC1(C)C2CCC(CNC(=O)c3cnc(N4CCN(C5CCN(Cc6ccc(Cl)cc6)CC5)CC4)c(Br)c3)C1C2 (stereo not drawn) [compound 179] | > 100 nM
42 | CC(C)NC(=O)c1cnc(N2CCN(C3CCN(Cc4ccc(Cl)cc4)CC3)CC2)c(Cl)c1 [compound 180] | > 100 nM

Row | Compound | IC50
43 | CC(C)CNC(=O)c1cnc(N2CCN(C3CCN(Cc4ccc(Cl)cc4)CC3)CC2)c(Cl)c1 [compound 181] | > 100 nM
44 | O=C(NCc1ccc(F)c(F)c1)c1cnc(N2CCN(C3CCN(Cc4ccc(Cl)cc4)CC3)CC2)c(I)c1 [compound 182] | < 25 nM
45 | Cc1ccc(CN2CCC(N3CCN(c4ncc(C(=O)NCc5ccc(Cl)c(Cl)c5)cc4Cl)CC3)CC2)cc1 [compound 183] | > 100 nM
46 | O=C(NCC1CCCCC1)c1cnc(N2CCN(C3CCN(Cc4ccc(Cl)cc4)CC3)CC2)c(Cl)c1 [compound 184] | 25 to 100 nM
47 | CC1CN(c2ncc(C(=O)NCc3ccc(Cl)c(Cl)c3)cc2Cl)CCN1C1CCN(Cc2ccc(Cl)cc2)CC1 (stereo not drawn) [compound 185] | < 25 nM
48 | CC1CN(c2ncc(C(=O)NCc3ccc(Cl)c(Cl)c3)cc2Cl)CCN1C1CCN(Cc2ccc([N+](=O)[O-])cc2)CC1 (stereo not drawn) [compound 186] | < 25 nM
49 | CC1CN(c2ncc(C(=O)NCc3ccc(F)c(F)c3)cc2Cl)CCN1C1CCN(Cc2ccc([N+](=O)[O-])cc2)CC1 (stereo not drawn) [compound 187] | < 25 nM
50 | CC1CN(c2ncc(C(=O)NCc3ccc(F)c(F)c3)cc2Cl)CCN1C1CCN(Cc2ccc(Cl)cc2)CC1 (stereo not drawn) [compound 188] | 25 to 100 nM
51 | O=C(NC1CCCC1)c1cnc(N2CCN(C3CCN(Cc4ccc(Cl)cc4)CC3)CC2)c(Br)c1 [compound 189] | > 100 nM
52 | N#Cc1ccc(CN2CCC(N3CCN(c4ncc(C(=O)NC5CCCC5)cc4Cl)CC3)CC2)cc1 [compound 190] | > 100 nM
53 | O=C(NC1CCCCC1)c1cnc(N2CCN(C3CCN(Cc4ccc(Cl)cc4)CC3)CC2)c(Cl)c1 [compound 191] | > 100 nM
54 | CCCNC(=O)c1cnc(N2CCN(C3CCN(Cc4ccc(Cl)cc4)CC3)CC2)c(Cl)c1 [compound 192] | > 100 nM
55 | N#Cc1ccc(C(=O)N2CCC(N3CCN(c4ncc(C(=O)NCC5CCCCC5)cc4Br)CC3)CC2)cc1 [compound 193] | 25 to 100 nM
56 | O=C(NCC1CCCCC1)c1cnc(N2CCN(C3CCN(Cc4ccc(Cl)cc4)CC3)CC2)c(Br)c1 [compound 194] | 25 to 100 nM
57 | COCCNC(=O)c1cnc(N2CCN(C3CCN(Cc4ccc(Cl)cc4)CC3)[C@@H](CC(C)C)C2)c(Cl)c1 [compound 195] | > 100 nM
58 | CC(C)C[C@H]1CN(c2ncc(C(=O)NC(C)C)cc2Cl)CCN1C1CCN(Cc2ccc(Cl)cc2)CC1 [compound 196] | > 100 nM
59 | CC(C)C[C@H]1CN(c2ncc(C(=O)NCC3CCCCC3)cc2Cl)CCN1C1CCN(Cc2ccc(Cl)cc2)CC1 [compound 197] | 25 to 100 nM
60 | CNC(=O)c1cnc(N2CCN(C3CCN(Cc4ccc(Cl)cc4)CC3)[C@@H](CC(C)C)C2)c(Cl)c1 [compound 198] | > 100 nM
61 | CC(C)C[C@H]1CN(c2ncc(C(=O)NCc3ccc(F)c(F)c3)cc2Cl)CCN1C1CCN(Cc2ccc(Cl)cc2)CC1 [compound 199] | > 100 nM
62 | Cc1cc(C(=O)NCc2ccc(F)c(F)c2)cnc1N1CCN(C2CCN(Cc3ccc(Cl)cc3)CC2)CC1 [compound 200] | > 100 nM
63 | Cc1cc(C(=O)NCc2ccc(Cl)c(Cl)c2)cnc1N1CCN(C2CCN(Cc3ccc(Cl)cc3)CC2)CC1 [compound 201] | > 100 nM
